Here are results for one compound from patent US20130183294A1, “METHODS OF USING FGF19 MODULATORS” (GENENTECH, INC., priority 2012, published 2013).

Each structure is given as a SMILES string.

Assay [1] relates to Caco-2 cells. As to the kind of experiment: Gene expression (qRT-PCR) in intestinal epithelial (Caco-2) cells. Format: cell-based, human. Conditions: 50 μM, 24 h. On the technique in general: Quantitative PCR measures a nucleic acid by following its amplification.
Assay [2] concerns Caco-2 monolayers. As to the kind of experiment: Caco-2 permeability and taurocholate transport in transwell system. The settings on record: 50 μM, 24 h, p value<0.001. The assay is classed as cell-based, human. How it is done: The Caco-2 human adenocarcinoma cell line and Eagle's Minimum Essential Medium (EMEM) were purchased from ATCC (American Type Culture Collection, Rockville, Md.). Caco-2 cells were seeded on transwell inserts (0.4 μm pore size, Corning, N.Y.) at a density of 1.5×10^5 cells/mL and cultured for 23 days with media changes 3 times per week. On day 23, the cells were treated with either isotype control antibody (100 μg/mL), FGF19 (gp120, Genentech Inc., CA) (500 ng/mL), anti-FGF19 (100 μg/mL), DCA (Sigma-Aldrich, St. Louis, Mo.) (50 μM) or DCA (50 μM) plus anti-FGF19 (100 μg/mL) for 24 h prior to the permeability experiments. The monolayers were equilibrated for 30 min in transport buffer (HBSS with 10 mM HEPES, pH 7.4) at 37° C. and the transepithelial electrical resistance [TEER cm2), membrane area 1.12 cm^2] of each well was measured using the volt-ohm meter and STX-2 electrode. The permeabilities of lucifer yellow (LY), and taurocholate were evaluated in the apical to basolateral (A-B) direction. […] The apparent permeability for taurocholate, and LY (Papp) was calculated using the following equation: Papp=dQ/dt×1/C0A where dQ/dt is the rate of compound appearance in the receiver compartment, C0 is the concentration in the donor compartment and A is the surface area of the insert. […]
In general terms: Caco-2 monolayers are a common model of the intestinal barrier.

For the compound `C[C@H](CCC(=O)O)[C@H]1CC[C@H]2[C@@H]3CC[C@@H]4C[C@H](O)CC[C@]4(C)[C@H]3C[C@H](O)[C@]12C` [DCA, deoxycholic acid], in assay [1] (p value<0.0001), the IBABP expression increase was over 30 fold. Also, the Ost-α expression increase in assay [1] (p value<0.0015) was found to be 2 fold. In assay [1] (p value<0.05), this compound had an Ost-β expression increase of 1.3 fold. The “taurocholate uptake, reduction vs. control” value in assay [2] is given as −80%.
